Laboratory results published in US10343988B1, “Hydroxytyrosol thiodipropionic acid ester with antioxidant activity and a method of preparing the same” (SHAANXI UNIVERSITY OF SCIENCE AND TECHNOLOGY, priority 2019, dated 2019).
“Also recorded” adds a separate entry of the source.

Assay: DPPH radical scavenging activity assay
Format: biochemical
Conditions: for Scavenging Activity (%) (n = 3): DPPH in methanol, 30 min, 517 nm
Description: DPPH Radical Scavenging Activity Assay
2,2-Diphenyl-1-picryl hydrazyl (DPPH) is an organic compound composed of a stable organic radical. In the DPPH molecule, due to the presence of multiple electron-withdrawing —NO2 and large it bonds of the benzene ring, nitrogen free radical is stabilized. Its methanol solution is purple and has a maximum absorption peak at 517 nm. After the addition of an antioxidant, DPPH captures an electron to be paired with the free electron, and the purple fades and turns into a yellow substance. The absorption at 517 nm disappears, and the degree of fading is quantitatively related to the number of electrons it captures. Based on this principle, a spectrophotometer is used to detect the change of the absorbance of the DPPH radical and the sample solution, and the ability of the sample to provide hydrogen atoms and scavenge free radicals can be measured.
(a) Preparation of DPPH solution:measuring exact amount of 2,2-diphenyl-1-picryl hydrazyl (DPPH) and dissolving in methanol to prepare a 0.2×10^−4 mol/L DPPH solution, stored at 0° C. in dark.
(b) Preparation of sample solutions: Vc (vitamin C, positive control), hydroxytyrosol thiodipropionic acid ester, hydroxytyrosol (control), thiodipropionic acid (control), and a mixture of hydroxytyrosol and thiodipropionic acid (control) were dissolved in methanol and diluted in a concentration gradient.
Measuring the scavenging activity of the sample solutions: 2 mL of the sample solutions (table 1) at each concentration gradient was taken, 2 mL 0.2×10^−4 mol/L DPPH solution was added, the mixture was mixed and reacted at room temperature in dark for 30 minutes, and methanol was then added to adjust final volume. The absorbance Ai was measured at 517 nm. 2 mL control solution and 2 mL methanol were mixed, and the absorbance Aj was measured. 2 mL DPPH solution and 2 mL methanol were mixed, and the absorbance A0 was measured.
(d) The scavenging activity of the sample solution and control solutions is calculated according to the following calculation formula and shown in Table 3 and FIG. 3. Scavenging activity (%)=100×[1−(Ai−Aj)/A0]

[1] = sample concentration 1.648 μg/mL, room temperature, dark
[2] = sample concentration 8.242 μg/mL
[3] = sample concentration 16.484 μg/mL
[4] = sample concentration 37.969 μg/mL
[5] = sample concentration 65.938 μg/mL
[6] = sample concentration 131.875 μg/mL
[7] = sample concentration 263.750 μg/mL
[8] = sample concentration 527.500 μg/mL
[9] = sample concentration 1055.000 μg/mL

Structure (SMILES) | Scavenging Activity (%) (n = 3) [1] | Scavenging Activity (%) (n = 3) [2] | Scavenging Activity (%) (n = 3) [3] | Scavenging Activity (%) (n = 3) [4] | Scavenging Activity (%) (n = 3) [5] | Scavenging Activity (%) (n = 3) [6] | Scavenging Activity (%) (n = 3) [7] | Scavenging Activity (%) (n = 3) [8] | Scavenging Activity (%) (n = 3) [9] | DPPH radical scavenging activity (result in words, comparison with controls) (1.648 to 1055 μg/mL, compared at same concentration)
O=C(O)CCSCCC(=O)O [C, 3,3′-thiodipropionic acid] | 3.24 | 4.86 | 9.72 | 16.19 | 20.65 | 27.13 | 31.58 | 32.39 | 38.06 | –
O=C1O[C@H]([C@@H](O)CO)C(O)=C1O [Vc, Vitamin C] | 34.01 | 37.06 | 44.67 | 67.51 | 95.43 | 97.46 | 98.98 | 99.49 | 99.49 | –
O=C(CCSCCC(=O)OCCc1ccc(O)c(O)c1)OCCc1ccc(O)c(O)c1 [A, bis(3,4-dihydroxyphenethyl) 3,3′-thiodipropanoate] | 32.44 | 42.37 | 52.29 | 66.79 | 79.39 | 90.01 | 96.95 | 97.71 | 98.09 | obvious DPPH radical scavenging activity in a concentration dependent manner; also recorded: better DPPH radical scavenging activity than hydroxytyrosol (B), thiodipropionic acid (C), and a 2:1 physical mixture of hydroxytyrosol and thiodipropionic acid (D) at same concentration
OCCc1ccc(O)c(O)c1 [B, 4-(2-hydroxyethyl)-1,2-benzenediol] | 8.44 | 10.97 | 22.78 | 29.96 | 43.04 | 62.87 | 73.00 | 75.11 | 75.95 | –
